Activity calls are given as the source filed them. The rule behind the calls is not given here.
Columns and labels:
[1] = target: T1, Pancreatic alpha-amylase (Homo sapiens) (UniProt P04746); assay: Inhibition of pancreatic alpha-amylase (unknown origin) at 5 mM using starch as substrate preincubated for 30 mins followed by substrate addition measured after 10 mins by dinitrosalicylic acid method based microplate reader analysis
T1 sequence (whole entry): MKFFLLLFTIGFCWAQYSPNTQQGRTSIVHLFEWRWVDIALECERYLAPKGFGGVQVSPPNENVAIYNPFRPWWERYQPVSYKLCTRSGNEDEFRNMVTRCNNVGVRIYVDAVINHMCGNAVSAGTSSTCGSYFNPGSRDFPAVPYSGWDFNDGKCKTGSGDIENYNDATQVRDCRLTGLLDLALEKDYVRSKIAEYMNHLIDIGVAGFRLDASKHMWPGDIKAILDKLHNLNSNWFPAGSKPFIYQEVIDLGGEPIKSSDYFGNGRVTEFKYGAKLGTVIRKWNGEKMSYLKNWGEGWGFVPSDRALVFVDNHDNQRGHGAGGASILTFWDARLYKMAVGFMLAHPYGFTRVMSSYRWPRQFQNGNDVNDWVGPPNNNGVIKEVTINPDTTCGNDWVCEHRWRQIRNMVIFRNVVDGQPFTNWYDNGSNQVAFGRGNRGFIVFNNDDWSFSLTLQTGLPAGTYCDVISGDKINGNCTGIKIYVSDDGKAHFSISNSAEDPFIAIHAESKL

[2] = target: Alpha-glucosidase MAL12 (Saccharomyces cerevisiae S288c) (UniProt P53341); assay: Inhibition of yeast alpha-glucosidase MAL12 at 5 mM using 4-nitrophenyl-alpha-D-glucopyranoside as substrate preincubated for 30 mins followed by substrate addition measured after 10 mins by microplate reader analysis
Alpha-glucosidase MAL12 (Saccharomyces cerevisiae S288c), sequence (P53341 whole entry): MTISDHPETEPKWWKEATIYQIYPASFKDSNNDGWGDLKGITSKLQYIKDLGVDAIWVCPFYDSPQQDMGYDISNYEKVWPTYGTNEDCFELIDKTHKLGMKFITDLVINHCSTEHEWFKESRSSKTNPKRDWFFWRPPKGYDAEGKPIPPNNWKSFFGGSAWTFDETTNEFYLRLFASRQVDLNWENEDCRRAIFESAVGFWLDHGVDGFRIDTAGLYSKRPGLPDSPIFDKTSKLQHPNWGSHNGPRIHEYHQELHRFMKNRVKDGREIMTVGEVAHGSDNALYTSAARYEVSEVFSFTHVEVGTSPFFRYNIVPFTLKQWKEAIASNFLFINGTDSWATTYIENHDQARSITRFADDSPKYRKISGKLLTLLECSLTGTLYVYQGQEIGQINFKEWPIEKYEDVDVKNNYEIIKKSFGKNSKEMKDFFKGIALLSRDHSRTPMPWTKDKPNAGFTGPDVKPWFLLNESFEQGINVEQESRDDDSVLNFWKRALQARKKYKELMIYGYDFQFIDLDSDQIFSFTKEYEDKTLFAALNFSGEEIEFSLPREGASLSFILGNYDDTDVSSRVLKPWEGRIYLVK

[3] = target: Alpha-glucosidase MAL12 (Saccharomyces cerevisiae S288c, UniProt P53341); assay: Inhibition of yeast alpha-glucosidase MAL12 using 4-nitrophenyl-alpha-D-glucopyranoside as substrate preincubated for 30 mins followed by substrate addition measured after 10 mins by microplate reader analysis
Alpha-glucosidase MAL12, sequence (P53341 whole entry): as above

Structure (SMILES)	inhibition [1]	inhibition [2]	IC50 [3] [µM]
COc1ccc(-c2ccnc3nnnn23)cc1	inactive	Active	85.7
c1csc(-c2ccnc3nnnn23)c1	inactive	Active	1010
c1ccc(-c2ccnc3nnnn23)nc1	inactive	Active	591
c1ccc(-c2ccnc3nnnn23)cc1	inactive	Active	422
Cc1ccc(-c2ccnc3nnnn23)cc1	inactive	Active	49.8
O=c1oc2ccccc2cc1-c1ccnc2nnnn12	inactive	Active	446
Fc1ccc(-c2ccnc3nnnn23)cc1	inactive	Active	178
c1ccc2oc(-c3ccnc4nnnn34)cc2c1	inactive	Active	
O=[N+]([O-])c1ccc(-c2ccnc3nnnn23)cc1	inactive	Active	308
Clc1ccc(-c2ccnc3nnnn23)cc1	inactive	Active	421
Brc1ccc(-c2ccnc3nnnn23)cc1	inactive	Active	
Oc1ccccc1-c1ccnc2nnnn12	inactive	Active	1740

From ChEMBL document CHEMBL3826904, “Ionic liquid-promoted multicomponent synthesis of fused tetrazolo[1,5-a]pyrimidines as α-glucosidase inhibitors” (Bioorg Med Chem Lett, 2016)
